# Results as given in ChEMBL document CHEMBL1201862, “PubChem BioAssay data set” (2004).
#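 Compound exposure: 48 hours, 5 concentrations, 96-well plates. GI50 marks 50% less growth.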 Active and inactive are the calls of the source. No stated cut-off is given here; in the data, active = GI50 up to about 1.1 µM and inactive = higher.
# Assays:
# Test in all cases: NCI tumour cell line growth inhibition, 48 h
# K562 = tested on: K562
# SW-620 = tested on: SW-620
# MOLT-4 = tested on: MOLT-4
# NCI-H226 = tested on: NCI-H226
# BT-549 = tested on: BT-549
# SF-268 = tested on: SF-268
# UO-31 = tested on: UO-31
# SNB-75 = tested on: SNB-75
# RPMI-8226 = tested on: RPMI-8226
# A549 = tested on: A549
# SR = tested on: SR
# SF-295 = tested on: SF-295
# MDA-N = tested on: MDA-N
# OVCAR-4 = tested on: OVCAR-4
# RXF 393 = tested on: RXF 393
# DU-145 = tested on: DU-145
# ACHN = tested on: ACHN
# 786-0 = tested on: 786-0
# CCRF-CEM = tested on: CCRF-CEM
Compound,GI50 (K562),GI50 (SW-620),GI50 (MOLT-4),GI50 (NCI-H226),GI50 (BT-549),GI50 (SF-268),GI50 (UO-31),GI50 (SNB-75),GI50 (RPMI-8226),GI50 (A549),GI50 (SR),GI50 (SF-295),GI50 (MDA-N),GI50 (OVCAR-4),GI50 (RXF 393),GI50 (DU-145),GI50 (ACHN),GI50 (786-0),GI50 (CCRF-CEM)
O=C1OC(c2ccc(O)c(-c3ccccc3)c2)(c2ccc(O)c(-c3ccccc3)c2)c2c(Cl)c(Cl)c(Cl)c(Cl)c21,> 100 µM (inactive),> 100 µM (inactive),> 100 µM (inactive),> 100 µM (inactive),> 100 µM (inactive),> 100 µM (inactive),> 100 µM (inactive),> 100 µM (inactive),> 100 µM (inactive),> 100 µM (inactive),> 100 µM (inactive),> 100 µM (inactive),> 100 µM (inactive),> 100 µM (inactive),> 100 µM (inactive),> 100 µM (inactive),> 100 µM (inactive),> 100 µM (inactive),> 100 µM (inactive)
O=CNc1ncn[nH]1,> 100 µM (inactive),> 100 µM (inactive),> 100 µM (inactive),> 100 µM (inactive),> 100 µM (inactive),> 100 µM (inactive),> 100 µM (inactive),> 100 µM (inactive),> 100 µM (inactive),> 100 µM (inactive),> 100 µM (inactive),> 100 µM (inactive),> 100 µM (inactive),> 100 µM (inactive),> 100 µM (inactive),> 100 µM (inactive),> 100 µM (inactive),> 100 µM (inactive),> 100 µM (inactive)
COc1cc(C2c3cc4c(cc3OC(N3CCCCC3)C2C)OCO4)cc(OC)c1O (stereo unspecified),4.06 µM (inactive),5.31 µM (inactive),6.12 µM (inactive),21.9 µM (inactive),10.5 µM (inactive),13.8 µM (inactive),15 µM (inactive),2.96 µM (inactive),9.35 µM (inactive),10.7 µM (inactive),4.82 µM (inactive),3.7 µM (inactive),2.14 µM (inactive),17.3 µM (inactive),14.5 µM (inactive),19.5 µM (inactive),8.57 µM (inactive),8.77 µM (inactive),3.4 µM (inactive)
OCCN1CCN(c2nc(N3CCCC3)c3nc(Cl)c(NCc4ccccc4)nc3n2)CC1,2.54 µM (inactive),3.78 µM (inactive),3.19 µM (inactive),17.6 µM (inactive),6.84 µM (inactive),8.85 µM (inactive),4.89 µM (inactive),3.27 µM (inactive),2.83 µM (inactive),6.59 µM (inactive),2.54 µM (inactive),5.53 µM (inactive),3.7 µM (inactive),11.2 µM (inactive),1.32 µM (inactive),8.15 µM (inactive),7.8 µM (inactive),1.95 µM (inactive),3.8 µM (inactive)
CCOC(=O)c1ccc(NC(=O)O/N=C(/Cl)C(C)C)cc1,1.56 µM (inactive),2.09 µM (inactive),1.92 µM (inactive),24.4 µM (inactive),14.9 µM (inactive),16.5 µM (inactive),17.8 µM (inactive),12.9 µM (inactive),4.49 µM (inactive),21.7 µM (inactive),2.87 µM (inactive),19.1 µM (inactive),15.8 µM (inactive),14.5 µM (inactive),16.3 µM (inactive),28.1 µM (inactive),14 µM (inactive),6.67 µM (inactive),0.953 µM (active)
CCNC(=O)C1CCCN1C(=O)C(CCCN=C(N)N)NC(=O)C(CC(C)C)NC(=O)C(Cc1c[nH]c2ccccc12)NC(=O)C(Cc1ccc(O)cc1)NC(=O)C(CO)NC(=O)C(Cc1c[nH]c2ccccc12)NC(=O)C(Cc1c[nH]cn1)NC(=O)C1CCC(=O)N1 (stereo unspecified),> 100 µM (inactive),> 100 µM (inactive),> 100 µM (inactive),> 100 µM (inactive),> 100 µM (inactive),> 100 µM (inactive),> 100 µM (inactive),> 100 µM (inactive),> 100 µM (inactive),> 100 µM (inactive),> 100 µM (inactive),> 100 µM (inactive),> 100 µM (inactive),> 100 µM (inactive),> 100 µM (inactive),> 100 µM (inactive),> 100 µM (inactive),> 100 µM (inactive),> 100 µM (inactive)
C=C(C)C(=O)OC1CC2(C)OC(=CC2=O)C(C)CC2OC(=O)C(=C)C12 (stereo unspecified),0.656 µM (active),2.79 µM (inactive),2.9 µM (inactive),19.1 µM (inactive),6.25 µM (inactive),26.7 µM (inactive),4.9 µM (inactive),20.2 µM (inactive),3.3 µM (inactive),18.9 µM (inactive),1.63 µM (inactive),19 µM (inactive),3.01 µM (inactive),3.99 µM (inactive),1.19 µM (inactive),4.74 µM (inactive),2.8 µM (inactive),3.24 µM (inactive),0.839 µM (active)
COc1ccc(N2C=Nn3c(nc4sc5c(c4c3=O)CCCC5)C2)cc1,> 100 µM (inactive),> 100 µM (inactive),> 100 µM (inactive),84.3 µM (inactive),20.7 µM (inactive),19.2 µM (inactive),> 100 µM (inactive),8.77 µM (inactive),> 100 µM (inactive),> 100 µM (inactive),> 100 µM (inactive),18.3 µM (inactive),> 100 µM (inactive),> 100 µM (inactive),15.4 µM (inactive),> 100 µM (inactive),12.1 µM (inactive),5.77 µM (inactive),> 100 µM (inactive)
COCCN1C(=O)C2c3[nH]c4ccccc4c3C3CCC(C(C)(C)C)CC3C2C1=O (stereo unspecified),18.9 µM (inactive),17.3 µM (inactive),> 10 µM (inactive),22.1 µM (inactive),18.8 µM (inactive),19.2 µM (inactive),13.9 µM (inactive),17.5 µM (inactive),15.2 µM (inactive),19.1 µM (inactive),11.7 µM (inactive),18.6 µM (inactive),14.5 µM (inactive),16.9 µM (inactive),20.4 µM (inactive),19.1 µM (inactive),> 10 µM (inactive),17.2 µM (inactive),22.6 µM (inactive)
CC[C@@H](/C=C\CCC1(C[C@@H](N)CCC=C(C)C)OCCO1)O[Si](C(C)C)(C(C)C)C(C)C,10.8 µM (inactive),21.7 µM (inactive),17.6 µM (inactive),17.4 µM (inactive),20.1 µM (inactive),19.1 µM (inactive),17.6 µM (inactive),18.9 µM (inactive),17.9 µM (inactive),18.2 µM (inactive),3.27 µM (inactive),19 µM (inactive),16.4 µM (inactive),19.1 µM (inactive),19.4 µM (inactive),19.8 µM (inactive),18 µM (inactive),17.4 µM (inactive),11.6 µM (inactive)
COC(=O)C1(Cc2ccccc2)Cc2cc3c(cc2C1=O)CCC3 (stereo unspecified),31.4 µM (inactive),29.6 µM (inactive),17.1 µM (inactive),27.4 µM (inactive),43.7 µM (inactive),22.2 µM (inactive),34.5 µM (inactive),27.7 µM (inactive),23.1 µM (inactive),16.6 µM (inactive),21.9 µM (inactive),38.2 µM (inactive),15 µM (inactive),33.7 µM (inactive),36.8 µM (inactive),48.1 µM (inactive),49.8 µM (inactive),39.4 µM (inactive),22.6 µM (inactive)
COc1ccc2c(c1)OC(c1cccnc1)C(c1ccccc1)C2=O (stereo unspecified),> 100 µM (inactive),> 100 µM (inactive),> 100 µM (inactive),98.9 µM (inactive),> 100 µM (inactive),61 µM (inactive),> 100 µM (inactive),> 100 µM (inactive),> 100 µM (inactive),> 100 µM (inactive),> 100 µM (inactive),46.5 µM (inactive),> 100 µM (inactive),> 100 µM (inactive),> 100 µM (inactive),> 100 µM (inactive),> 100 µM (inactive),86.1 µM (inactive),> 100 µM (inactive)
COc1ccc(Cc2cc(OC)c(OC)c(OC)c2)cc1,0.0665 µM (active),0.109 µM (active),0.221 µM (active),0.923 µM (active),1.54 µM (inactive),1.27 µM (inactive),0.766 µM (active),0.192 µM (active),0.298 µM (active),0.417 µM (active),0.0436 µM (active),0.188 µM (active),0.0245 µM (active),10.6 µM (inactive),0.168 µM (active),0.328 µM (active),0.771 µM (active),0.429 µM (active),0.165 µM (active)
Cc1ccc2c(O)cc(-c3cccs3)nc2n1,5.81 µM (inactive),3.07 µM (inactive),9.64 µM (inactive),8.91 µM (inactive),> 100 µM (inactive),49.8 µM (inactive),8.61 µM (inactive),10.1 µM (inactive),5.05 µM (inactive),9.79 µM (inactive),2.05 µM (inactive),17 µM (inactive),1.47 µM (inactive),> 90.6 µM (inactive),18.1 µM (inactive),30.5 µM (inactive),33 µM (inactive),15.1 µM (inactive),15.3 µM (inactive)
